Test results: ChEMBL document CHEMBL1154961, “Structure-activity relationships of bacterial outer-membrane permeabilizers based on polymyxin B heptapeptides” (2010)
Values after ≈ are worked out from the molar mass of the structure shown.

How the values were obtained:
[1] = test system: Escherichia coli; test: Antibacterial activity against Escherichia coli K-12 W3110 after 20 hrs by liquid microdilution method; type: functional; conditions: K-12 W3110, 20 h
[2] = test system: Staphylococcus aureus; test: Antibacterial activity against Staphylococcus aureus 209P after 20 hrs by liquid microdilution method; type: functional
[3] = test system: Escherichia coli; test: Induction of outer membrane permeability in Escherichia coli K-12 W3110 assessed as increase in novobiocin antibacterial activity after 20 hrs by liquid microdilution method; type: functional, organism-based
[4] = test system: Escherichia coli; test: Induction of outer membrane permeability in Escherichia coli K-12 W3110 assessed as increase in erythromycin antibacterial activity after 20 hrs by liquid microdilution method; type: functional, organism-based

Row | Compound | MIC [1] [µg/mL] | MIC [2] [µg/mL] | Activity [3] | Activity [4]
1 | CC(C)C[C@@H]1NC(=O)[C@@H](Cc2ccccc2)NC(=O)[C@H](CN)N(C(=O)O)CCNC(=O)[C@H]([C@@H](C)O)NC(=O)[C@H](CCCN)NC(=O)[C@H](CN)NC1=O | > 128 | – | – | –
2 | CC(C)CCCCCCCC(=O)N[C@@H](C(=O)N[C@@H](CN)C(=O)NCC(=O)N1CCNC(=O)[C@H]([C@@H](C)O)NC(=O)[C@H](CCN)NC(=O)[C@H](CCN)NC(=O)[C@H](CC(C)C)NC(=O)[C@@H](Cc2ccccc2)NC(=O)[C@@H]1CCN)[C@@H](C)O | 0.5 (≈ 0.447 µM) | 64 (≈ 57.3 µM) | – | –
3 | CC(C)C[C@@H]1NC(=O)[C@@H](Cc2ccccc2)NC(=O)[C@H](CCCN)N(C(=O)O)CCNC(=O)[C@H]([C@@H](C)O)NC(=O)[C@H](CCCN)NC(=O)[C@H](CCCN)NC1=O | > 128 | – | – | –
4 | CCCCCCCC(=O)N[C@@H](CCN)C(=O)N[C@@](C)(C(=O)N[C@@H](CCN)C(=O)N[C@H]1CCNC(=O)[C@H]([C@@H](C)O)NC(=O)[C@H](CCN)NC(=O)[C@H](CCN)NC(=O)[C@H](CC(C)C)NC(=O)[C@@H](Cc2ccccc2)NC(=O)[C@H](CCN)N1)[C@H](C)O | 0.5 (≈ 0.425 µM) | > 128 | – | –
5 | CC[C@H]1OC(=O)[C@H](C)[C@@H](O[C@H]2C[C@@](C)(OC)[C@@H](O)[C@H](C)O2)[C@H](C)[C@@H](O[C@@H]2O[C@H](C)C[C@H](N(C)C)[C@H]2O)[C@](C)(O)C[C@@H](C)C(=O)[C@H](C)[C@@H](O)[C@]1(C)O [ERYTHROMYCIN] | 64 (≈ 87.2 µM) | – | – | –
6 | CC(C)C[C@@H]1NC(=O)[C@@H](Cc2ccccc2)NC(=O)[C@H](CCN)N(C(=O)O)CCNC(=O)[C@H]([C@@H](C)O)NC(=O)[C@H](CCN)NC(=O)[C@H](CCN)NC1=O | > 128 | – | Dose-dependent effect | Dose-dependent effect
7 | CC(C)C[C@@H]1NC(=O)[C@@H](Cc2ccccc2)NC(=O)[C@H](CN)N(C(=O)O)CCNC(=O)[C@H]([C@@H](C)O)NC(=O)[C@H](CN)NC(=O)[C@H](CCCN)NC1=O | > 128 | – | – | –
8 | CO[C@@H]1[C@@H](OC(N)=O)[C@@H](O)[C@H](Oc2ccc3c(O)c(NC(=O)c4ccc(O)c(CC=C(C)C)c4)c(=O)oc3c2C)OC1(C)C [NOVOBIOCIN] | 128 (≈ 209 µM) | – | – | –
9 | CCCCCCCC(=O)N[C@@H](CCN)C(=O)N[C@@H](C(=O)N[C@@H](CCN)C(=O)N[C@H]1CCNC(=O)[C@H]([C@H](C)O)NC(=O)[C@H](CCN)NC(=O)[C@H](CCN)NC(=O)[C@H](CC(C)C)NC(=O)[C@@H](Cc2ccccc2)NC(=O)[C@H](CN)C1=O)[C@H](C)O | 16 (≈ 13.8 µM) | > 128 | – | –
10 | CC(C)C[C@@H]1NC(=O)[C@@H](Cc2ccccc2)NC(=O)[C@H](CN)N(C(=O)O)CCNC(=O)[C@H]([C@@H](C)O)NC(=O)[C@H](CN)NC(=O)[C@H](CN)NC1=O | > 128 | – | – | –
